Assay results as given in US10654818B2, “Furane derivatives as inhibitors of ATAD2” (BAYER PHARMA AKTIENGESELLSCHAFT, priority 2015, dated 2020).
pIC50: −log10 of the molar value.

Biological target: T1, recombinant, N-terminally GST-tagged ATAD2 bromodomain amino acids 981-1108 (Homo sapiens, UniProt Q6PL18)
T1 construct: ATAD2 bromodomain amino acids 981-1108; made in house; host or cells: E. coli
T1 sequence (Q6PL18 981-1108): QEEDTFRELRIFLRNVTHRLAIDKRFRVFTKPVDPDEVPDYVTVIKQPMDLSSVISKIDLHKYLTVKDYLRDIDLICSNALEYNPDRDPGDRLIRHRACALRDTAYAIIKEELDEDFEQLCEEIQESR
Assay: TR-FRET assay: disruption of the interaction between ATAD2 and acetylated Histone H4 (Ac-H4) peptide
Format: binding
Conditions: inhibition of ATAD2/Ac-H4 complex formation; 10 nM ATAD2, 50 nM Ac-H4 peptide
In short: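 Read-out is the 665/622 nm TR-FRET ratio after 337 nm excitation, normalized to DMSO and no-protein controls, with IC50 fitted by 4-parameter logistic. Compounds (11 concentrations, 0.1 nM-20 μM) pre-equilibrated 10 min with 10 nM ATAD2, then 1 h at 22 °C with 50 nM Ac-H4 peptide.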

Row | SMILES | pIC50
1 | Cc1ccc([C@@H](C)NCc2ccc(-c3ccc(Cl)c(C(=O)N[C@@H](CC(=O)N4CCN(C)CC4)Cc4ccc(C#N)cc4)c3)o2)cc1 [Example 11, 2-chloro-N-[(2R)-1-(4-cyanophenyl)-4-(4-methylpiperazin-1-yl)-4-oxobutan-2-yl]-5-[5-({[(lR)-1-(4-methylphenyl)ethyl]amino}methyl)-2-furyl]benzamide] | 6.09
2 | CNC(=O)[C@@H](Cc1ccc(C#N)cc1)NC(=O)c1cc(-c2ccc(CN[C@H](C)c3ccc(C)cc3)o2)ccc1Cl [Example 5, Nα-{2-chloro-5-[5-({[(1R)-1-(4-methylphenyl)ethyl]amino}methyl)furan-2-yl]benzoyl}-4-cyano-N-methyl-D-phenylalaninamide] | 5.72
3 | Cc1ccc([C@@H](C)NCc2ccc(-c3ccc(Cl)c(C(=O)N[C@@H](CN[C@H]4CC[C@@H](N)CC4)Cc4ccc(C#N)cc4)c3)o2)cc1 (single isomer, unassigned) [Example 72] | 6.86
4 | Cc1ccc([C@@H](C)NCc2ccc(-c3ccc(Cl)c(C(=O)N[C@@H](CCN4CCN(C)C[C@@H]4C)Cc4ccc(C#N)cc4)c3)o2)cc1 [Example 31, 2-chloro-N-{(2R)-1-(4-cyanophenyl)-4-[(2S)-2,4-dimethylpiperazin-1-yl]butan-2-yl}-5-[5-({[(1R)-1-(4-methylphenyl)ethyl]amino}methyl)-2-furyl]benzamide] | 6.53
5 | COc1cc(Cl)c(C(=O)N[C@@H](CO)Cc2ccc(C#N)c(C)c2)cc1-c1ccc(CN[C@H](C)c2ccc(C)cc2)o1 [Example 82] | 6.46
6 | Cc1ccc([C@@H](C)NCc2ccc(-c3ccc(Cl)c(C(=O)N[C@@H](CNCCC4CCNCC4)Cc4ccc(C#N)cc4)c3)o2)cc1 [Example 70] | 7.07
7 | COC[C@@H](Cc1ccc(C#N)cc1)NC(=O)c1cc(-c2ccc(CN[C@H](C)c3ccc(C)cc3)o2)ccc1Cl [Example 14, 2-chloro-N-[(2R)-1-(4-cyanophenyl)-3-methoxypropan-2-yl]-5-[5-({[(1R)-1-(4-methylphenyl)ethyl]amino}methyl)-2-furyl]benzamide] | 6.05
8 | Cc1ccc([C@@H](C)NCc2ccc(-c3ccc(Cl)c(C(=O)N[C@@H](CNC4CCNCC4F)Cc4ccc(C#N)cc4)c3)o2)cc1 (stereo partly shown) [Example 73] | 6.88
9 | COC(=O)C[C@@H](Cc1ccc(C#N)cc1)NC(=O)c1cc(-c2ccc(CN[C@H](C)c3ccc(C)cc3)o2)ccc1Cl [Example 50, methyl (3R)-3-({2-chloro-5-[5-({[(1R)-1-(4-methylphenyl)ethyl]amino}methyl)-2-furyl]benzoyl}amino)-4-(4-cyanophenyl)butanoate] | 5.90
10 | Cc1ccc([C@@H](C)NCc2ccc(-c3cc(C(=O)N[C@@H](CO)Cc4ccc(C#N)cc4)ccc3C#N)o2)cc1 [Example 79, 4-cyano-N-[(2R)-1-(4-cyanophenyl)-3-hydroxypropan-2-yl]-3-[5-({[(1R)-1-(4-methylphenyl)ethyl]amino}methyl)-2-furyl]benzamide] | 5.85
11 | Cc1ccc([C@@H](C)NCc2ccc(-c3ccc(Cl)c(C(=O)N[C@@H](CNC(=O)C4CCNCC4)Cc4ccc(C#N)cc4)c3)o2)cc1 [Example 56, N-[(2R)-2-({2-chloro-5-[5-({[(1R)-1-(4-methylphenyl)ethyl]amino}methyl)-2-furyl]benzoyl}amino)-3-(4-cyanophenyl)propyl]piperidine-4-carboxamide] | 6.29
12 | CNC(=O)C[C@@H](Cc1ccc(C#N)cc1)NC(=O)c1ccc(C#N)c(-c2ccc(CN[C@H](C)c3ccc(C)cc3)o2)c1 [Example 91] | 4.87
13 | Cc1ccc([C@@H](C)NCc2ccc(-c3ccc(Cl)c(C(=O)N[C@@H](CNCC(=O)N4CCNCC4)Cc4ccc(C#N)cc4)c3)o2)cc1 [Example 55, 2-chloro-N-[(2R)-1-(4-cyanophenyl)-3-{[2-oxo-2-(piperazin-1-yl)ethyl]amino}propan-2-yl]-5-[5-({[(1R)-1-(4-methylphenyl)ethyl]amino}methyl)-2-furyl]benzamide] | 6.56
14 | Cc1ccc([C@@H](C)NCc2ccc(-c3ccc(Cl)c(C(=O)N[C@@H](CNC4CCNCC4)Cc4ccc(C#N)cc4)c3)o2)cc1 [Example 67] | 6.58
15 | Cc1ccc([C@@H](C)NCc2ccc(-c3ccc(Cl)c(C(=O)N[C@H](Cc4ccc(C#N)cc4)[C@H](C)O)c3)o2)cc1 [Example 17, 2-chloro-N-[(2R,3S)-1-(4-cyanophenyl)-3-hydroxybutan-2-yl]-5-[5-({[(1R)-1-(4-methylphenyl)ethyl]amino}methyl)-2-furyl]benzamide] | 6.47
16 | CNC(=O)C[C@@H](Cc1ccc(C#N)cc1)NC(=O)c1cc(-c2ccc(CN[C@H](C)c3ccc(Cl)cc3)o2)ccc1Cl [Example 89, 2-chloro-5-[5-({[(1R)-1-(4-chlorophenyl)ethyl]amino}methyl)-2-furyl]-N-[(2R)-1-(4-cyanophenyl)-4-(methylamino)-4-oxobutan-2-yl]benzamide] | 5.69
17 | Cc1ccc([C@@H](C)NCc2ccc(-c3cc(F)c(Cl)c(C(=O)N[C@@H](CO)Cc4ccc(C#N)cc4)c3)o2)cc1 [Example 77, 2-chloro-N-[(2R)-1-(4-cyanophenyl)-3-hydroxypropan-2-yl]-3-fluoro-5-[5-({[(1R)-1-(4-methylphenyl)ethyl]amino}methyl)-2-furyl]benzamide] | 6.22
18 | Cc1ccc([C@@H](C)NCc2ccc(-c3ccc(Cl)c(C(=O)N[C@@H](CCN[C@@H]4CCN(C)C4)Cc4ccc(C#N)cc4)c3)o2)cc1 [Example 34, 2-chloro-N-[(2R)-1-(4-cyanophenyl)-4-{[(3R)-1-methylpyrrolidin-3-yl]amino}butan-2-yl]-5-[5-({[(1R)-1-(4-methylphenyl)ethyl]amino}methyl)-2-furyl]benzamide] | 6.37
19 | Cc1ccc([C@@H](C)NCc2ccc(-c3ccc(Cl)c(C(=O)N[C@@H](CO)Cc4ccccc4)c3)o2)cc1 [Example 96] | 5.58
20 | COC(=O)[C@@H](Cc1ccc(C#N)cc1)NC(=O)c1cc(-c2ccc(CN[C@H](C)c3ccc(C)cc3)o2)ccc1Cl [Example 15, methyl N-{2-chloro-5-[5-({[(1R)-1-(4-methylphenyl)ethyl]amino}methyl)-2-furyl]benzoyl}-4-cyano-D-phenylalaninate] | 6.09
21 | Cc1ccc([C@@H](C)NCc2ccc(-c3ccc(Cl)c(C(=O)N[C@H](Cc4ccc(C#N)cc4)[C@@H](C)O)c3)o2)cc1 [Example 16, 2-chloro-N-[(2R,3R)-1-(4-cyanophenyl)-3-hydroxybutan-2-yl]-5-[5-({[(1R)-1-(4-methylphenyl)ethyl]amino}methyl)-2-furyl]benzamide] | 6.24
22 | COc1cc(C)c(C(=O)N[C@@H](CO)Cc2ccc(C#N)cc2)cc1-c1ccc(CN[C@H](C)c2ccc(C)cc2)o1 [Example 80, N-[(2R)-1-(4-cyanophenyl)-3-hydroxypropan-2-yl]-4-methoxy-2-methyl-5-[5-({[(1R)-1-(4-methylphenyl)ethyl]amino}methyl)-2-furyl]benzamide] | 6.39
23 | CC(=O)NC[C@@H](Cc1ccc(C#N)cc1)NC(=O)c1cc(-c2ccc(CN[C@H](C)c3ccc(C)cc3)o2)ccc1Cl [Example 43, N-[(2R)-1-acetamido-3-(4-cyanophenyl)propan-2-yl]-2-chloro-5-[5-({[(1R)-1-(4-methylphenyl)ethyl]amino}methyl)-2-furyl]benzamide] | 5.77
24 | Cc1ccc([C@@H](C)NCc2ccc(-c3ccc(Cl)c(C(=O)N[C@@H](CCN[C@H]4CCN(C)C4)Cc4ccc(C#N)cc4)c3)o2)cc1 [Example 35, 2-chloro-N-[(2R)-1-(4-cyanophenyl)-4-{[(3S)-1-methylpyrrolidin-3-yl]amino}butan-2-yl]-5-[5-({[(1R)-1-(4-methylphenyl)ethyl]amino}methyl)-2-furyl]benzamide] | 6.33
25 | Cc1ccc([C@@H](C)NCc2ccc(-c3ccc(Cl)c(C(=O)N[C@@H](CO)Cc4ccc(I)cc4)c3)o2)cc1 [Example 18, 2-chloro-N-[(2R)-1-hydroxy-3-(4-iodophenyl)propan-2-yl]-5-[5-({[(1R)-1-(4-methylphenyl)ethyl]amino}methyl)-2-furyl]benzamide] | 5.95
26 | Cc1ccc([C@@H](C)NCc2ccc(-c3ccc(Cl)c(C(=O)N[C@@H](CC(=O)N4CCOCC4)Cc4ccc(C#N)cc4)c3)o2)cc1 [Example 10, 2-chloro-N-[(2R)-1-(4-cyanophenyl)-4-(morpholin-4-yl)-4-oxobutan-2-yl]-5-[5-({[(1R)-1-(4-methylphenyl)ethyl]amino}methyl)-2-furyl]benzamide] | 6.17
27 | Cc1ccc([C@@H](C)NCc2ccc(-c3ccc(Cl)c(C(=O)N[C@H](Cc4ccc(C#N)cc4)CN4CCOCC4)c3)o2)cc1 [Example 22, 2-chloro-N-[(2R)-1-(4-cyanophenyl)-3-(morpholin-4-yl)propan-2-yl]-5-[5-({[(1R)-1-(4-methylphenyl)ethyl]amino}methyl)-2-furyl]benzamide] | 6.07
28 | Cc1ccc([C@@H](C)NCc2ccc(-c3ccc(Cl)c(C(=O)N[C@@H](CO)Cc4ccc(C#N)cc4N)c3)o2)cc1 [Example 41, N-[(2R)-1-(2-amino-4-cyanophenyl)-3-hydroxypropan-2-yl]-2-chloro-5-[5-({[(1R)-1-(4-methylphenyl)ethyl]amino}methyl)-2-furyl]benzamide] | 6.12
